Consider twelve compounds from ChEMBL document CHEMBL1157931 (Bioorg Med Chem, 2010).

Each structure is given as a SMILES string. Calls of active or inactive are those of the source. The rule behind the calls is not given here.

The target in series [1] is T1, 5-hydroxytryptamine receptor 1A (Homo sapiens, UniProt P08908).
T1 sequence (P08908 whole entry): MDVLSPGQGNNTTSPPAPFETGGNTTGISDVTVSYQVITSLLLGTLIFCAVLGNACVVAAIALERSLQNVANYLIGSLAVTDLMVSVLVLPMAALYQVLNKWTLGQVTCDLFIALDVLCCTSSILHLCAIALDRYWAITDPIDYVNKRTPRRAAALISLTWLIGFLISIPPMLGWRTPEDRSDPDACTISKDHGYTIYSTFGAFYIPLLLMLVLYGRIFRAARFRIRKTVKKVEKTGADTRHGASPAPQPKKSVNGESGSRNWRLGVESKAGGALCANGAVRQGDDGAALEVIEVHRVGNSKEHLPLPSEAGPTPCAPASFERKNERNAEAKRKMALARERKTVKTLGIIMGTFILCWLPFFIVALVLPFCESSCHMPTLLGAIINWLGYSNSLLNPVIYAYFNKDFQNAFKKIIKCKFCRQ
Briefly: Displacement of [3H]8-OH-DPAT from 5HT1A receptor expressed in HEK293 cells after 2 hrs by liquid scintillation counting. In kind it is cell-based. On the technique in general: Loss of bound radioactivity is the signal in a displacement assay; it reports binding, not function.

For series [2], the target named is T2, 5-hydroxytryptamine receptor 1A (Homo sapiens) (UniProt P08908).
T2 sequence (whole entry): T1 sequence (P08908 whole entry)
Briefly: Displacement of [3H]8-OH-DPAT from 5HT1A receptor expressed in HEK293 cells at 25 ug/ml after 2 hrs by liquid scintillation counting. In kind it is cell-based.

Series [3] addresses T2, 5-hydroxytryptamine receptor 1A (Homo sapiens). Briefly: Antagonist activity at 5HT1A receptor expressed in HEK293 cells assessed as inhibition of 8-OH-DPAT-induced [S35]GTPgammaS binding by scintillation counting. Format: functional, cell-based. In general terms: Binding of GTPγS marks nucleotide exchange on a G protein.
Series [4] has the same target. Briefly: Antagonist activity at 5HT1A receptor expressed in HEK293 cells assessed as inhibition of serotonin-induced [S35]GTPgammaS binding by scintillation counting. Format: functional, cell-based.
The target of series [5] is ATP-dependent translocase ABCB1 (Homo sapiens, UniProt P08183). Briefly: Inhibition of human MDR1 expressed in MDCK cells assessed as fluorescence activity at 30 uM after 1.5 hrs by rhodamine 123 efflux test. Format: cell-based.
Chain of ATP-dependent translocase ABCB1 (P08183 whole entry): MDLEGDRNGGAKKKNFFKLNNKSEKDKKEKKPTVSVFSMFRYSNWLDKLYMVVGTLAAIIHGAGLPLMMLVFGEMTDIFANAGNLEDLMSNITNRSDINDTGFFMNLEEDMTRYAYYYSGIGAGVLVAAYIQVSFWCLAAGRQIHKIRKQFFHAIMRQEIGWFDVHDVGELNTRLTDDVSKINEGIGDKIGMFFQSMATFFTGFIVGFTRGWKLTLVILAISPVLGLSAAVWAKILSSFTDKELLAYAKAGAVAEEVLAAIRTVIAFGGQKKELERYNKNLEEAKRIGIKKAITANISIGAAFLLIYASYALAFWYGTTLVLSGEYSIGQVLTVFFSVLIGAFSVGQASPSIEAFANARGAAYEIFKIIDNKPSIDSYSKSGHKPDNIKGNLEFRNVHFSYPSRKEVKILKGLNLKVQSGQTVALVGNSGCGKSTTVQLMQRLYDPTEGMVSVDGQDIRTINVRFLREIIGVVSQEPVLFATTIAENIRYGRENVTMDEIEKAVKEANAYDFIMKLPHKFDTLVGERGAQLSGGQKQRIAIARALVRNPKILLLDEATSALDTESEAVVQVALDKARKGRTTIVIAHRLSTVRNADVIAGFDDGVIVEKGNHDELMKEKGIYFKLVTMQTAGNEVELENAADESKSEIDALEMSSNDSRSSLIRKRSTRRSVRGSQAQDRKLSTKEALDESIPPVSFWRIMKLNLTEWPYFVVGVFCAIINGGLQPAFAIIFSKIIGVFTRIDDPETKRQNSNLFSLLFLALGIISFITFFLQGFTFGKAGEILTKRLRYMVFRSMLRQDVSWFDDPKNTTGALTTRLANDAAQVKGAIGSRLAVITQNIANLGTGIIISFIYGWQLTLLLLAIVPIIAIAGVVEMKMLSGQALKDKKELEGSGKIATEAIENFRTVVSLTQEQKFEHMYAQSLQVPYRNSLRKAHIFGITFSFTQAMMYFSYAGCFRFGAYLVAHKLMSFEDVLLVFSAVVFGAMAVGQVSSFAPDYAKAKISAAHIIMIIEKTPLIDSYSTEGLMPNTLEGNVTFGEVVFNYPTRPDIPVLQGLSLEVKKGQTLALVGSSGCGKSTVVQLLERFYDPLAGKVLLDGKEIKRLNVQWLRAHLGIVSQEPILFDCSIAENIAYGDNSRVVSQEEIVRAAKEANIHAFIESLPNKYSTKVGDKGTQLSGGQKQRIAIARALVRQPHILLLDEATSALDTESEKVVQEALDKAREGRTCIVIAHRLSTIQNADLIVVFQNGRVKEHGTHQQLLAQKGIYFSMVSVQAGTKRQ
The subject of series [6] is Caco-2. Briefly: Cytotoxicity against human Caco-2 cells at 50 ug/ml. Format: cell-based.
Series [7] deals with Caco-2. Briefly: Permeability in human Caco-2 cells assessed as passive diffusion after 3 hrs by HPLC. Conditions: caco-2, 3 h. Format: ADME, cell-based. For orientation: Caco-2 cells form a polarised layer with tight junctions and transporters.
The target in series [8] is T2, 5-hydroxytryptamine receptor 1A (Homo sapiens). Briefly: Agonist activity at 5HT1A receptor expressed in HEK293 cells by [S35]GTPgammaS binding assay relative to 8-OH-DPAT. Format: functional, cell-based. More on the design: concentration or dose not given beside the values.
For series [9] the target is unchanged. Briefly: Agonist activity at 5HT1A receptor expressed in HEK293 cells at >20 uM by [S35]GTPgammaS binding assay relative to 8-OH-DPAT. In kind it is functional, cell-based.

Broadly, the Ki is the dissociation constant of the complex between target and ligand, obtained from inhibition or displacement. Regarding `CCCCCCCCC/C(O)=C/C(=O)/C=C/c1ccc(O)c(OC)c1`, in series [1], the Ki came out at 3.59 µM. In series [2], this compound returned an Activity above 50%. Also, the outcome in [3] and in series [4] was inactive. In addition, the “inhibition (INH)” value in series [5] was “Not Active”.
Turning to `CCCCC[C@H](O)CC(=O)CCc1ccc(O)c(OC)c1` [GINGEROL], the values for the Activity entry (in the series on Caco-2 [6]; in series [2]) were “Non-toxic” and above 50%, respectively. This compound also returned a Ki in series [1] above 100 µM. Also, the outcome in [3] and in [4] was inactive. Further, the permeability with Caco-2 [7] is given as 10%. Also, in [5], the “inhibition (INH)” value is listed as “Not Active”.
For `CCCCCCCCC/C=C/C(=O)CCc1ccc(O)c(OC)c1`, the results for the Activity entry (with Caco-2 [6]; in [2]; in series [8]) were “Non-toxic”, above 50% and above 20%, respectively. Also, the inhibition constant (Ki) in series [1] is 5.84 µM. Besides, the outcome in [9], in series [3] and in series [4] was inactive. Besides, the permeability in the series with Caco-2 [7] was 10%. The “inhibition (INH)” value in series [5] is on record as “Not Active”.
Regarding `CC[C@]1(O)C[C@@H]2CN(CCc3c([nH]c4ccccc34)[C@@](C(=O)OC)(c3cc4c(cc3OC)N(C)[C@H]3[C@@](O)(C(=O)OC)[C@H](OC(C)=O)[C@]5(CC)C=CCN6CC[C@]43[C@@H]65)C2)C1` [VINBLASTINE], the “inhibition (INH)” value in series [5] is “Active”.
`CCCCCCC/C(O)=C/C(=O)/C=C/c1ccc(O)c(OC)c1` showed a Ki in [1] of 6.54 µM. For the same compound, the Activity in [2] is above 50%. Besides, the result in series [3] and in [4] was inactive. In addition, in [5], the “inhibition (INH)” value is “Not Active”.
In series [1], `CCCCCCC/C=C/C(=O)CCc1ccc(O)c(OC)c1` yielded a Ki of 13 µM. The same compound yielded an Activity in [2] above 50%. In addition, the result in series [3] and in [4] was inactive. Also, the “inhibition (INH)” value in [5] was “Not Active”.
Regarding `CCCCCCC[C@H](O)CC(=O)CCc1ccc(O)c(OC)c1`, the Activity result with Caco-2 [6] is “Non-toxic”; in series [2], above 50%. For the same compound, the Ki in series [1] came to 11.7 µM. Besides, the outcome in series [3] and in [4] was inactive. Also, the permeability in the series on Caco-2 [7] turned out to be 10%. Also, the “inhibition (INH)” value in series [5] is “Not Active”.
With `CCCCCCCCC[C@H](O)CC(=O)CCc1ccc(O)c(OC)c1`, the Activity result with Caco-2 [6] was “Non-toxic”; in series [2], above 50%; in [8], above 10%. The compound further gave a Ki in series [1] of 3.74 µM. The outcome in series [3] and in series [4] was inactive. Also, the permeability with Caco-2 [7] was 10%. Moreover, in series [5], the “inhibition (INH)” value is on record as “Not Active”.
The compound `NCCc1c[nH]c2ccc(O)cc12` came in with an Activity in series [8] of 100%.
In series [1], `CCCCCCCC(O)CCc1ccc(O)c(OC)c1` (configuration not stated) showed a Ki of 9.53 µM. In addition, in series [8], the Activity was above 10%.
In series [1], `CCCCC/C=C/C(=O)CCc1ccc(O)c(OC)c1` [SHOGAOL] gave a Ki of 18 µM. The Activity in series [2] is above 50%. The result in series [3] and in series [4] was inactive. Moreover, in series [5], the “inhibition (INH)” value was “Not Active”.
With `CCCCCC(=O)/C=C(O)/C=C/c1ccc(O)c(OC)c1`, in series [1], the Ki amounted to 6.53 µM. For the same compound, the Activity was above 50% in series [2] and above 20% in series [8]. The outcome in series [9], in series [3] and in series [4] was inactive. The “inhibition (INH)” value in series [5] is “Not Active”.
